Measurements from patent US20240293483A1, “PROBIOTIC COMPOSITION FOR THE TREATMENT OF INCREASED INTESTINAL PERMEABILITY” (AB-BIOTICS, S.A., priority 2021, published 2024).

Key:
[1] = system: Caco-2 intestinal epithelial cells; test: Adhesion to the intestinal epithelium in vitro; assay type: cell-based; conditions: Caco-2 monolayers, MOI 1:5, 1 h at 37° C., % of LOG cfu/mL
Procedure: Adhesion to the intestinal epithelium was studied in vitro using Caco-2 intestinal epithelial cells. Bacterial suspensions were added to Caco-2 monolayers (Multiplicity of infection (MOI) 1:5 cells to probiotic) and to wells without Caco-2 cells as controls. After 1 h of incubation at 37° C., medium was removed, cells were detached, and suspensions recovered. Bacteria were enumerated in the obtained suspension by serial dilutions and plate count. Bacteria in the medium of the control wells were also quantified. B. longum subsp. longum ATCC 15707 was used as quality control with a known adhesion percentage of 47-55.

[2] = system: HSP27; test: HSP27 production by Western blot; assay type: cell-based; conditions: Caco-2, 16 h, high-polyP supernatant (MEI) vs low-polyP supernatant (LP); normalized to β-actin
Procedure: The production of HSP27 was studied in Caco-2 intestinal epithelial cells in confluence by Western blot assay as described by Alcántara et al., 2018 with some modifications. Bacterial supernatants were added to the cell cultures and incubation proceeded for 16 h. MEI and LP media were used as controls. To recover HSP27, cells were lysed with […] and boiled for 5 min. Proteins were separated in SDS-PAGE gel and then transferred to a nylon membrane (blot). The blots were incubated with a rabbit polyclonal anti-HSP27 serum or with a mouse monoclonal anti-β-actin antibody (protein used for normalization). After washing, secondary antibodies peroxidase-conjugated anti-rabbit IgG and anti-mouse IgG, respectively, were used. Blots images were captured, and proteins were quantified in an Imagin 680 system.

[3] = system: Zonula ocludens-1 (ZO1); test: Expression of tight junction genes by qPCR: ZO1; assay type: cell-based; conditions: Caco-2, 16 h, high-polyP vs low-polyP supernatant
Procedure: (§1) Caco-2 cells were exposed for 16 h to supernatants of B. longum CECT 7894 grown in MEI and LP media. Then, cells were recovered, and RNA extracted with TRIZOL reagent. cDNA was obtained from RNA using SuperScript VILO cDNA synthesis kit. Quantitative PCR (qPCR) reactions were performed with SYBR Green in the conditions indicated by manufacturer. Expression of tight junction proteins Zonula ocludens-1 (ZO1), Junctional adhesion protein-1 (JAM1) and occluding was quantified. Expression of 18S rRNA and GADPH genes were used for normalization.

[4] = system: Occludin; test: Expression of tight junction genes by qPCR: occludin; assay type: cell-based; conditions: Caco-2, 16 h, high-polyP vs low-polyP supernatant
Procedure: as §1

[5] = system: polyP; test: PolyP amount in culture supernatants (extracellular); conditions: 16 h
Procedure: B. longum CECT 7894 was grown in MEI medium and Low Phosphate (LP) medium. The last medium has the same composition as MEI but without the addition of polyP precursors (K2HPO4 and KH2PO4), thus the strain cannot produce high amounts of polyP. After 16 h growth cultures were centrifuged and supernatants collected, filtered, and adjusted to neutral pH. PolyP amounts were measured as described in EXAMPLE 1.

[6] = system: Junctional adhesion protein-1 (JAM1); test: Expression of tight junction genes by qPCR: JAM1; assay type: cell-based; conditions: Caco-2, 16 h, high-polyP vs low-polyP supernatant
Procedure: as §1

[7] = system: Caco-2 cells monolayer; test: Barrier integrity (TEER) and permeability (Papp of Lucifer Yellow) of Caco-2 monolayer; assay type: cell-based; conditions: Caco-2, 72 h apical exposure to high-polyP supernatant (MEI culture) vs low-polyP supernatant and controls
Procedure: Integrity of Caco-2 cells monolayer was evaluated by measuring transepithelial electrical resistance (TEER) and permeability by the apparent permeability coefficients (Papp) of the paracellular transport marker Lucifer Yellow.
Caco-2 cells were seed in porous membrane inserts with apical (upper) and basolateral (lower) compartments. Medium Essential Medium Eagle (MEM) was added to both compartments. Cells were treated with supernatants of B. longum CECT 7894 grown in MEI and LP media. Additional cells were treated with MEM, non-fermented MEI and LP media and used as controls.
After 72 h of treatment, TEER and permeability were determined. TEER was measured with a Millicell®-ERS voltammeter. For the permeability assay, Lucifer Yellow was added to the apical compartment. At 15, 30, 45, 60, 90 and 120 min, aliquots were taken from the basolateral compartment and the fluorescence of the Lucifer Yellow transported was measured with a fluorescence microplate reader at excitation/emission wavelengths of 485/520 nm.

[8] = system: dextran sulfate sodium (DSS)-induced colitis; conditions: mice, combined with infliximab; cited from earlier work
[9] = Stability of the strain in final product (plate counting of cfus, Zone II storage); assay type: physicochemical; conditions: 25° C., 60% RH
Procedure: The product was packaged in glass amber bottles and stored under Zone II conditions (25° C., 60% Relative Humidity (RH)). […] Results were expressed in LOG (cfus). Trend line was obtained and predicted cfus at 12 months were estimated. Fold and log reduction comparing cfus between 0 and 12 months were calculated.

[10] = system: polyP; test: Polyphosphate (polyP) production assay: hypochlorite extraction from cells, DAPI fluorescence quantification
Procedure: For polyP production assay, malic enzyme induction (MEI) medium containing (per liter, w/v) 0.5% yeast extract, 0.5% tryptone, 0.4% K2HPO4, 0.5% KH2PO4, 0.02% MgSO4·7H2O, 0.005% MnSO4, 1 ml of Tween 80, 0.05% cysteine, and 0.5% glucose was used (Alcántara et al. 2014). The strains unable to grow in MEI were grown in MRScys. Cultures were inoculated at OD (595 nm) 0.1 and each strain was grown under the conditions indicated above. Growth was monitored by measuring OD for 16 h.
PolyP was isolated from cells by its resistance to hydrolysis with sodium hypochlorite as previously described (Alcántara et al. 2014). Cells were harvested by centrifugation and lysed in 1 ml of 5% sodium hypochlorite with gentle agitation for 45 min at room temperature. Insoluble material was pelleted by centrifugation at 16,000 g for 5 min at 4° C. and washed twice with 1 ml of 1.5 M NaCl plus 1 mM EDTA at 16,000 g for 5 min at 4° C. PolyP was extracted from the pellets with two consecutive washes with 1 ml of water and a centrifugation step at 16,000 g for 5 min at 4° C. between them. PolyP in the pooled water extracts was precipitated by adding 0.1 M NaCl and 1 volume of ethanol, followed by incubation on ice for 1 h. After centrifugation at 16,000 g for 10 min, the polyP pellet was resuspended in 50 μL of water.
A standard curve relating phosphate amount to fluorescence intensity was built to quantify the extracted polyP from the strains. As a first step, serial dilutions of a sample of polyP isolated from the polyphosphate-producer control strain Lactiplantibacillus plantarum strain WCFS1 (Alcántara et al. 2014) were prepared. Second, the dilutions were hydrolyzed with a volume of 2 M HCl, incubated at 95° C. for 15 min to release phosphate and then neutralized by adding […] of 2 M NaOH. Third, the released phosphate from each dilution was quantified with BIOMOL Green Kit (Enzo Life Sciences) as recommended by the manufacturer. In parallel, the released phosphate from each dilution was dyed using 4′,6-diamidino-2-phenylindole (DAPI) at a final concentration of 10 μM in 50 mM Tris-HCl pH 7.5, 50 mM NaCl buffer and fluorescence was measured with an excitation wavelength of 415 nm and emission at 550 nm in a fluorimeter. Finally, a standard curve was built with phosphate values and the corresponding fluorescence values obtained.
Once the standard curve is obtained, polyP amounts from the samples can be quantified according to fluorescence values, without the need of using BIOMOL Green kit. Therefore, the quantification of polyP from the strain samples was indirectly measured by DAPI fluorescence using the standard curve. Firstly, the extracted polyP was measured by fluorescence using DAPI at a final concentration of 10 μM in 50 mM Tris-HCl pH 7.5, 50 mM NaCl buffer with an excitation wavelength of 415 nm and emission at 550 nm in a fluorimeter. Then, the amount of polyP was calculated as nmol of phosphate by means of the standard curve. At least three biological replicates were performed.
B. longum CECT 7894 was grown in medium MEI without glucose supplemented with i) breast milk (1% v/v); ii) LNT (1% w/v); iii) polyamines, in quantities found in breast milk: 70.0, 424.2 and 610.0 […] of putrescine, spermidine and spermine, respectively, and glucose (0.5% w/v); and iv) glucose (0.5% w/v) as positive control. Growth (OD550) and polyP production were determined after 6 and 16 h of incubation.

## Bifidobacterium longum subsp. longum KABP-042 (CECT 7894)
[1]
  Adhesion to intestinal epithelium (%): 70.8%
[1]; listed as B. longum subsp. longum KABP042 (CECT 7894)
  Adhesion to intestinal epithelium (%): 70.8%
[2]
  production of HSP27: significantly higher production of HSP27
[3]
  expression of tight junction protein ZO1: induced
[4]
  expression of tight junction protein Occludin: induced
[5]; high phosphate (MEI medium)
  PolyP amount in supernatant, MEI medium: 2.24 nmol
[5]; low phosphate (LP medium)
  PolyP amount in supernatant, LP medium: 0.22 nmol
[6]
  expression of tight junction protein JAM1: induced
[7]
  transepithelial electrical resistance (TEER): higher TEER
[8]
  effect on efficacy of infliximab in DSS-induced colitis: improved the efficacy of infliximab
[9]; final product in sunflower oil, trend line from 0-6 months
  LOG (cfus) estimated at 12 months: 9.01 LOG (cfus)
[9]; final product, 0 vs 12 months
  LOG loss over 12 months: ~0.5 LOG
[10]; 6 h
  times more polyP than B. scardovii BAA-773: 140 times
[10]; 6 h values (12.7 vs 230.9 nmol)
  times more polyP than L. plantarum WCFS1: 18 times
[10]; MEI + polyamines (putrescine, spermidine, spermine) + glucose 0.5%, 6 h
  PolyP 6 h, Polyamines: 111.0 nmol
[10]; MEI + polyamines + glucose 0.5%, 16 h
  PolyP 16 h, Polyamines: 48.6 nmol
[10]; MEI or MRScys, inoculated at OD 0.1, 6 h of growth, nmol of phosphate
  PolyP 6 h: 230.9 nmol
[10]; MEI or MRScys, inoculated at OD 0.1, 16 h of growth, nmol of phosphate
  PolyP 16 h: 258.3 nmol
[10]; MEI with glucose 0.5%, 6 h
  PolyP 6 h, Control (glucose): 110.2 nmol
[10]; MEI with glucose 0.5%, 16 h
  PolyP 16 h, Control (glucose): 70.2 nmol
[10]; MEI without glucose + LNT 1% w/v, 6 h
  PolyP 6 h, LNT: 117.0 nmol
[10]; MEI without glucose + LNT 1% w/v, 16 h
  PolyP 16 h, LNT: 145.0 nmol
[10]; MEI without glucose + breast milk 1% v/v, 6 h
  PolyP 6 h, Breast milk: 18.5 nmol
[10]; MEI without glucose + breast milk 1% v/v, 16 h
  PolyP 16 h, Breast milk: 2.0 nmol
